The target in this assay is Monoacylglycerol lipase ABHD6 (Mus musculus) (UniProt Q8R2Y0). Nature of the assay: ABHD6 inhibition in mouse proteome, late-stage follow-up, selectivity assay for DAGLb inhibitor project, biochemical, gel-based competitive ABPP, fluorescence, enantiomers (AID 624472). Particulars: at 10 µM (top of the series).

Each structure is given as a SMILES string.

Chain of Monoacylglycerol lipase ABHD6 (Mus musculus) (Q8R2Y0 whole entry, looked up): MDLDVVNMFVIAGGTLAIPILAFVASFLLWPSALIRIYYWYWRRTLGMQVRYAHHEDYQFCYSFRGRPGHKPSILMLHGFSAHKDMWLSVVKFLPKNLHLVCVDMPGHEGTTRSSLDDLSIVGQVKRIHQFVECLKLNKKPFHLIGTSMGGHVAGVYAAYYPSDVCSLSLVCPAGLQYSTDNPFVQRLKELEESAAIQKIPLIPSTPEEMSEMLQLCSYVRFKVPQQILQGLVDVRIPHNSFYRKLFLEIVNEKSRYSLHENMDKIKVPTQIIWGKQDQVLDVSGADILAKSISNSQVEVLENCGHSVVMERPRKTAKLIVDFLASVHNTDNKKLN

The inhibition is the relative decrease from the control value, in per cent. A high value points to strong suppression. Molecule `O=C(N1CCCCC1Cc1ccccc1)n1cc(-c2ccc(Br)cc2)nn1` (stereo unspecified) yielded an inhibition of 100%.

The record behind these values is PubChem BioAssay AID624472 (The Scripps Research Institute Molecular Screening Center, 2012).
